# US10488411B2, “Inflammasome activation in myelodysplastic syndromes” (H. LEE MOFFITT CANCER CENTER AND RESEARCH INSTITUTE, INC., priority 2015, dated 2019)
# Legend:
# β-catenin [1] = assay: β-catenin confocal microscopy in U2AF1 S34F mutant TF-1 cells; assay type: cell-based; conditions: treated for 24 hours prior to staining
# Description: Reagents and cells. U937 cells were grown in RPMI1640 supplemented with 10% FBS. TF-1 U2AF1 mutant and mock WT cells were cultured in RPMI1640 supplemented with 10% FBS and 2 ng/mL recombinant human GM-CSF. Cells were maintained at 37° C. under 5% CO2. Normal, heparinized BM aspirates were purchased from Lonza Walkersville or AllCells, LLC. […] J Clin Invest. 2013 123(11):4595-611). The IRAK4 inhibitor was acquired through material transfer agreement from Nimbus Discovery. NAC and DPI were purchased from Sigma-Aldrich. Active caspase-1 and caspase-3/7 were detected using FAM-FLICA® Caspase-1 and Caspase-3/7 activity kits, (ImmunoChemistry Technologies). NLRP1 antibodies were purchased from Santa Cruz Biotechnology, NLRP3 antibodies from Abcam, and β-catenin antibodies from BD Biosciences. Immunofluorescence confocal microscopy. MDS and normal donor BM-MNC and mouse BM cells were stained with 30× FAM-FLICA® Caspase-1 solution at a ratio of 1:30 for 2 hours at 37° C. Cells were washed and cytospins were generated using a 5 minutes centrifugation at 450 rpm. Slides were fixed at 37° C. for 10 minutes using BD Cytofix Fixation Buffer (BD Biosciences), and subsequently washed using PBS. […] Co-localization of a-caspase-1 with NLRP3 inflammasome complexes was assessed using a Leica TCS SP5 AOBS Laser Scanning Confocal microscope (Leica Microsystems). […]
# inflammasome = assay: ASC staining flow cytometry for inflammasome formation in SF3B1-K700E BM cells; assay type: cell-based, mouse; conditions: 24 hours treatment
# Description: ASC staining to detect inflammasome formation by flow cytometry. Staining was carried out as described ([…], et al. J Immunol. 2015 194(1):455-62). Briefly, cell pellets were resuspended in 1 mL of prewarmed BD Permeabilization Buffer III, and incubated on ice for 30 minutes. Cells were washed 2× with staining buffer. Following washing, cells were stained with rabbit-anti-ASC primary antibodies at a 1:1500 dilution and incubated for 90 minutes. Cells were washed, stained with secondary antibodies at a dilution of 1:1500, and incubated for 45 minutes. Cells were washed, and sample acquisitions were carried out using a BD LSR II flow cytometer and FACSDiva software.
# ROS [2] = assay: ROS detection by flow cytometry in SF3B1-K700E BM cells; assay type: cell-based, mouse; conditions: NAC or DPI treatment
# Description: (§1) ROS detection. ROS were detected using CM-H2DCFDA and CellROX® Deep Red Reagent according to manufacturer's protocol (Life Technologies).
# β-catenin [3] = assay: β-catenin confocal microscopy in SF3B1-K700E BM cells; assay type: cell-based, mouse; conditions: 24 hours treatment
# Description: (§2) Immunofluorescence confocal microscopy. MDS and normal donor BM-MNC and mouse BM cells were stained with 30× FAM-FLICA® Caspase-1 solution at a ratio of 1:30 for 2 hours at 37° C. Cells were washed and cytospins were generated using a 5 minutes centrifugation at 450 rpm. Slides were fixed at 37° C. for 10 minutes using BD Cytofix Fixation Buffer (BD Biosciences), and subsequently washed using PBS. Cells were permeabilized with 0.1% Triton X-100/2% BSA in PBS for 15 minutes at room temperature. After washing with PBS, cells were blocked using 2% BSA in PBS for 30 minutes at room temperature, and washed again. Cells were incubated with the appropriate primary antibody overnight (1:400 for NLRP3, 1:20 for β-catenin) at 4° C. The next day, cells were washed with PBS and incubated with the appropriate secondary antibodies (1:500) for 1 hour at room temperature. After washing, cells were covered with ProLong Gold Antifade Reagent with DAPI prior to the addition of a coverslip (Life Technologies). Co-localization of a-caspase-1 with NLRP3 inflammasome complexes was assessed using a Leica TCS SP5 AOBS Laser Scanning Confocal microscope (Leica Microsystems). Analysis of the inflammasome images was performed with Definiens Developer 2.0 (Definiens AG). The software was used to segment cells based on brightness and size thresholds, followed by a watershed segmentation algorithm. […]
# β-catenin [4] = assay: β-catenin confocal microscopy in normal BM-MNC; assay type: cell-based, human
# Description: as §2
# NLRP3 inflammasome [5] = biological target: T1, NLRP3 inflammasome (Homo sapiens, UniProt Q96P20); assay: Confocal microscopy of a-caspase-1/NLRP3 inflammasome formation in U937 cells; assay type: cell-based; conditions: 5 μg/mL, 24 hours
# T1 construct: endogenous in cells; host or cells: U937 cells
# T1 sequence (Q96P20 whole entry): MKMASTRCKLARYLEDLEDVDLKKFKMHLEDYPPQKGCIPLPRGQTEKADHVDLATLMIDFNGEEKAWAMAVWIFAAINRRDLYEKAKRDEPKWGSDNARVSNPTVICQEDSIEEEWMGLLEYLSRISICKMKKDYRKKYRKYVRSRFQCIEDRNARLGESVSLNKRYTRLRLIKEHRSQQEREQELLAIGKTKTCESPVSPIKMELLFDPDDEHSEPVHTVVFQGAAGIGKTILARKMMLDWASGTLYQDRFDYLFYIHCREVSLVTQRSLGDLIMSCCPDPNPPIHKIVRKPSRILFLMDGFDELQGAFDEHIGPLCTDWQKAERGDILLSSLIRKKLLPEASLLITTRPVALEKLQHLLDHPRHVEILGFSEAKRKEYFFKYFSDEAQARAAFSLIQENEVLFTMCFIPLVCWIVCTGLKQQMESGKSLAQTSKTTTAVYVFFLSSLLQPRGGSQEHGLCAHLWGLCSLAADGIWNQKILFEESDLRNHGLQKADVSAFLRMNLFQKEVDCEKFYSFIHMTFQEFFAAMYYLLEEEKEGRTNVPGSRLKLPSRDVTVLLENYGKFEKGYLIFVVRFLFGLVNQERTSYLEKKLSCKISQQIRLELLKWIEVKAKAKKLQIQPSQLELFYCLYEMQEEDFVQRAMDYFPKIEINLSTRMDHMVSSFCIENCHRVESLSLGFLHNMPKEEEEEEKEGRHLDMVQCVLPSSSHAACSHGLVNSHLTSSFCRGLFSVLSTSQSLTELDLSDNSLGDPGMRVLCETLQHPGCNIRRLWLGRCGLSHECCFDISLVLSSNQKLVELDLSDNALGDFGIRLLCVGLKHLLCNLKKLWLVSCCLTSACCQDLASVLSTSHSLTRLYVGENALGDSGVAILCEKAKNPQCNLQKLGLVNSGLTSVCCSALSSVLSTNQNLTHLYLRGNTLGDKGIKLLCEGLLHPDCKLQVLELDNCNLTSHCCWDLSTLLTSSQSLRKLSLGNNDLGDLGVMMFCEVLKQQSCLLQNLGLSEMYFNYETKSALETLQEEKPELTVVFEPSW
# U937 cells [6] = assay: S100A9 flow cytometry experiments in U937 cells (a-caspase-1/annexin-V); assay type: cell-based
# Description: S100A9 flow cytometry experiments in U937 cells. Monocytic U937 cells were treated with the indicated concentrations of rhS100A9 for 24 hours, or with 5 μg/mL rhS100A9 for the indicated time points. Subsequently, cells were stained with 30× FAM-FLICA® Caspase-1 solution at a ratio of 1:30 for 2 hours at 37° C. Cells were washed, resuspended in 1× binding buffer, and stained with Annexin-V:PE at a dilution of 1:30 for 15 minutes at room temperature. 1× binding buffer was added to a final volume of 350 μL. Sample acquisitions were carried out using a BD FACSCalibur flow cytometer (BD Biosciences). Data were analyzed using FlowJo 9.7.5 software.
# [7] = test system: pyroptosis-associated genes; assay: qPCR of pyroptosis-associated genes in normal BM-MNC treated with rhS100A9; assay type: cell-based, human; conditions: normal BM-MNC (n=2), 1 μg/mL, 24 hours
# Description: Real-time quantitative PCR. RNA was isolated from BM-MNC using the RNeasy Mini Kit (Qiagen). cDNA was produced using the iScript cDNA Synthesis Kit (Bio-Rad). Sequences for primers can be found in Table 1. GAPDH mRNA was used for transcript normalization. cDNA was amplified using the iQ SYBR Green Supermix and the CFX96 Real-Time PCR Detection System (Bio-Rad). PCR conditions were as follows: 10 minutes at 95° C., followed by 40 cycles of amplification (15 seconds at 95° C. and 1 minute at 60° C.). Relative gene expression was calculated using the −2^ΔΔCt method.
# NLRP3 inflammasome [8] = assay: Confocal microscopy of a-caspase-1/NLRP3 in normal BM-MNC treated with rhS100A9; assay type: cell-based, human; conditions: 5 μg/mL, 24 hours
# Description: (§3) Immunofluorescence confocal microscopy. MDS and normal donor BM-MNC and mouse BM cells were stained with 30× FAM-FLICA® Caspase-1 solution at a ratio of 1:30 for 2 hours at 37° C. Cells were washed and cytospins were generated using a 5 minutes centrifugation at 450 rpm. Slides were fixed at 37° C. for 10 minutes using BD Cytofix Fixation Buffer (BD Biosciences), and subsequently washed using PBS. Cells were permeabilized with 0.1% Triton X-100/2% BSA in PBS for 15 minutes at room temperature. After washing with PBS, cells were blocked using 2% BSA in PBS for 30 minutes at room temperature, and washed again. Cells were incubated with the appropriate primary antibody overnight (1:400 for NLRP3, 1:20 for β-catenin) at 4° C. The next day, cells were washed with PBS and incubated with the appropriate secondary antibodies (1:500) for 1 hour at room temperature. After washing, cells were covered with ProLong Gold Antifade Reagent with DAPI prior to the addition of a coverslip (Life Technologies). Co-localization of a-caspase-1 with NLRP3 inflammasome complexes was assessed using a Leica TCS SP5 AOBS Laser Scanning Confocal microscope (Leica Microsystems). Analysis of the inflammasome images was performed with Definiens Developer 2.0 (Definiens AG). The software was used to segment cells based on brightness and size thresholds, followed by a watershed segmentation algorithm. Intensity values and Pearson's correlation coefficient were extracted from the segmented cells. For β-catenin image analysis, confocal images were imported into Definiens Tissue Studio v3.0, 64 Dual in .tif format. Cells were separated from background using the RGB thresholds. Nuclei were identified by setting thresholds in the DAPI channel. Typical cells averaged 60 microns. The red intensity (β-catenin) in the nucleus and cytoplasm was established by setting thresholds to low, medium and high in the red channel on a scale of 0-255 in the red channel.
# U937 cells [9] = assay: Pore formation, ethidium bromide uptake in U937 cells; assay type: cell-based; conditions: U937, 5 μg/mL rhS100A9, 12.5 μg/mL ethidium bromide
# NLRP3 inflammasome [10] = assay: Confocal microscopy of a-caspase-1/NLRP3 in WT mouse BM cells treated with rhS100A9; assay type: cell-based; conditions: 5 μg/mL, 24 hours
# Description: as §3
# ROS [11] = assay: ROS detection by flow cytometry in U937 cells; assay type: cell-based; conditions: U937, 5 μg/mL, 24 hours, compared to untreated cells
# Description: as §1
# U937 cells [12] = assay: Comet assay of DNA damage in U937 cells; assay type: cell-based; conditions: U937, 5 μg/mL, 24 hours, compared to untreated cells
# Description: Comet assays. Monocytic U937 cells were treated with 5 μg/mL rhS100A9 for 24 hr. DNA damage was measured by single cell gel electrophoresis using alkaline CometAssay® according to manufacturer's protocol (Trevigen Inc.).
# β-catenin [13] = assay: β-catenin confocal microscopy in U937 cells; assay type: cell-based; conditions: 5 μg/mL, 24 hours, compared to untreated cells
# [14] = increasing concentrations, 24 hours
compound,measurement,setting,value
c1ccc2c(c1)[I+]c1ccccc1-2 [DPI],β-catenin activation in U2AF1-S34F mutant cells,β-catenin [1],effectively reduced
same,inflammasome formation (ASC) in SF3B1-K700E mutant-expressing BM cells,inflammasome,significantly reduced
same,ROS MFI in SF3B1-K700E BM cells,ROS [2],extinguished below the level of WT controls
same,mean percentage of ROS+ cells in SF3B1-K700E BM cells,ROS [2],extinguished below the level of WT controls
same,percentage of cells with elevated levels of nuclear β-catenin in SF3B1-K700E BM cells,β-catenin [3],significantly reduced
"CC(=O)N[C@@H](CS)C(=O)O [NAC, N-acetylcysteine]",β-catenin activation in U2AF1-S34F mutant cells,β-catenin [1],effectively reduced
same,inflammasome formation (ASC) in SF3B1-K700E mutant-expressing BM cells,inflammasome,significantly reduced
same,ROS MFI in SF3B1-K700E BM cells,ROS [2],extinguished below the level of WT controls
same,mean percentage of ROS+ cells in SF3B1-K700E BM cells,ROS [2],extinguished below the level of WT controls
same,percentage of cells with elevated levels of nuclear β-catenin in SF3B1-K700E BM cells,β-catenin [3],significantly reduced
same,S100A9-triggered nuclear translocation of β-catenin in normal BM-MNC,β-catenin [4]; S100A9 treatment of normal BM-MNC,abolished
"rhS100A9: recombinant human S100A9, alarmin / DAMP protein, TLR4 and CD33 ligand",levels of NLRP3 inflammasome complexes in U937,NLRP3 inflammasome [5],markedly increased
same,activation of caspase-1 in U937 over time,U937 cells [6]; 5 μg/mL,time-dependent increase
same,a-caspase-1 MFI in U937,U937 cells [6]; [14],corresponding increase
same,fraction of pyroptotic cells in U937,U937 cells [6]; [14],concentration-dependent increase
same,percentage of a-caspase-1+ cells in U937,U937 cells [6]; [14],corresponding increase
same,expression of pyroptosis-associated genes,[7],significantly up-regulated
same,"NLRP3 levels, fold induction",NLRP3 inflammasome [8],47.1 fold
same,"a-caspase-1 levels, fold induction",NLRP3 inflammasome [8],2.5 fold
same,"formation of NLRP3 inflammasomes, fold induction",NLRP3 inflammasome [8],2.9 fold
same,uptake of ethidium bromide,U937 cells [9],rapid and substantial uptake
same,inflammasome complexes,NLRP3 inflammasome [10],marked induction
same,MFI of NLRP3,NLRP3 inflammasome [10]; versus controls,significantly increased
same,MFI of a-caspase-1,NLRP3 inflammasome [10]; versus controls,significantly increased
same,fold increase in mean percentage of ROS-positive cells,ROS [11],2.9 fold
same,fold increase in DNA damage,U937 cells [12],4.1 fold
same,levels of nuclear (activated) β-catenin in U937,β-catenin [13],marked increases
same,levels of nuclear β-catenin in normal BM-MNC,"β-catenin [4]; 5 μg/mL, 24 hours, compared to controls",elevated levels
